Assay results reported in patent publication US20250361241A1, “HPK1 INHIBITOR AND MEDICAL USE THEREOF” (Betta Pharmaceuticals Co., Ltd., priority 2022, published 2025).

Each compound was assayed against GLK (Homo sapiens (Human), UniProt Q8IVH8) (assay: GLK kinase assay (1 mM ATP system), ADP-Glo).
Chain of GLK (Q8IVH8 whole entry, species assumed): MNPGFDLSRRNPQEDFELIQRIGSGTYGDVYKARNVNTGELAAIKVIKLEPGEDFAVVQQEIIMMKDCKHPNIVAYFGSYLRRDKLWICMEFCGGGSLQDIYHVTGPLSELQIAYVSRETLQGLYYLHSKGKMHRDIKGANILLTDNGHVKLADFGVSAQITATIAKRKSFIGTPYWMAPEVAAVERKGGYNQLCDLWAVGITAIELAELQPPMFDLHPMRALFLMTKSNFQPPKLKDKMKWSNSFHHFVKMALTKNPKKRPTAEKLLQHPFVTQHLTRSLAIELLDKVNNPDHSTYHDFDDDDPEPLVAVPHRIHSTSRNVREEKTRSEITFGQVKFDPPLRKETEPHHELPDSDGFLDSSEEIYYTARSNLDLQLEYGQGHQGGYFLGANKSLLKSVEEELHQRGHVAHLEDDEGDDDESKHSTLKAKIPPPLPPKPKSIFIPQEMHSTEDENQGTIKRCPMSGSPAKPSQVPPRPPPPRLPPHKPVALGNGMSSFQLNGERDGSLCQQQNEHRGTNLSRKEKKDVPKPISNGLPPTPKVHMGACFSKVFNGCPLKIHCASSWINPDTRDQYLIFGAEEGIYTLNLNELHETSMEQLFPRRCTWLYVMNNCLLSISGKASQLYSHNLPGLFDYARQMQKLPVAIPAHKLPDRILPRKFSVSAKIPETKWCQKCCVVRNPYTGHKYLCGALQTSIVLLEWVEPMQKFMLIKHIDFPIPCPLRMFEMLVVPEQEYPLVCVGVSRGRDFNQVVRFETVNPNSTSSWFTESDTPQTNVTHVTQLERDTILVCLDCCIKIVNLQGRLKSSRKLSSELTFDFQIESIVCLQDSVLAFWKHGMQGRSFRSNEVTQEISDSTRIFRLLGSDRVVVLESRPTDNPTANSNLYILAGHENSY
Assay type: biochemical
Method: Solution […] The test compound was serially diluted using DMSO to 200 times the detection concentration. […] Centrifuge at 1000×g for 30 seconds and incubate at 25° C. for 15 minutes. • (5) Add ATP and substrate: Add 2 μL of 2×ATP-MBP solution to the 384-well plate and centrifuge at 1000×g for 30 seconds. Seal the plate with a sealing film and incubate at 25° C. for 60 minutes. • (6) Add ADP-Glo reagent: Add 4 μL ADP-Glo reagent (Promega, V9103) to the 384-well plate, centrifuge at 1000×g for 30 seconds, and incubate at 25° C. for 60 minutes. • (7) Detection of luminescent signal: Add 8 μL of luminescent detection reagent (Promega, V9103) to a 384-well plate, centrifuge at 1000×g for 30 seconds, and incubate at 25° C. for 60 minutes. The chemiluminescent signal was read using a BMG microplate reader. • (8) Calculation of percentage inhibition rate: […] See Table 2 for the GLK kinase IC50 data of the example compounds on […].
In the case of CN(C)C1CCC2(CCOCC2)c2ccc(Nc3ccc(-c4cnc5cc(F)ccn45)c4c3C(=O)NC4)nc21 (stereo not drawn) [Compound 3], the IC50 is reported as 2860 nM. Cc1cc(Nc2ccc(-c3cnn4cc(F)ccc34)c3c2C(=O)NC3)nc2c1C1(CCOCC1)C[C@H]2N(C)C [Compound 29] gave an IC50 of 9.77 nM. Compound CN(C)C1CCC2(CCOCC2)c2ccc(Nc3ccc(-c4cnn5cc(F)ccc45)c4c3C(=O)NC4)nc21 (stereo not drawn) [Compound 32] has an IC50 of 596 nM. CN(C)C1CCC2(CCOCC2)c2ccc(Nc3ccc(-c4cnn5ccccc45)c4c3C(=O)NC4)nc21 (stereo not drawn) [Compound 33] gave an IC50 of 631 nM. Work on CN(C)C1CCC2(CCOCC2)c2ccc(Nc3ccc(-c4ccnc5c4ccn5C)c4c3C(=O)NC4)nc21 (stereo not drawn) [Compound 34] yielded an IC50 of 779 nM. For CN(C)C1CC2(CCOCC2)c2ccc(Nc3ccc(-c4cnn5cc(F)ccc45)c4c3C(=O)NC4)nc21 (stereo not drawn) [Compound 36], the IC50 was 78 nM. CN(C)C1CC2(CCOCC2)c2ccc(Nc3ccc(-c4cnn5ccccc45)c4c3C(=O)NC4)nc21 (stereo not drawn) [Compound 37] gave an IC50 of 158 nM.

What follows are compounds tested against HPK1 (Homo sapiens (Human), UniProt Q92918) (assay: HPK1 enzyme activity detection (1 mM ATP system), ADP-Glo with MBP substrate, Pharmacological Experiment 2).
Chain of HPK1 (Q92918 whole entry, species assumed): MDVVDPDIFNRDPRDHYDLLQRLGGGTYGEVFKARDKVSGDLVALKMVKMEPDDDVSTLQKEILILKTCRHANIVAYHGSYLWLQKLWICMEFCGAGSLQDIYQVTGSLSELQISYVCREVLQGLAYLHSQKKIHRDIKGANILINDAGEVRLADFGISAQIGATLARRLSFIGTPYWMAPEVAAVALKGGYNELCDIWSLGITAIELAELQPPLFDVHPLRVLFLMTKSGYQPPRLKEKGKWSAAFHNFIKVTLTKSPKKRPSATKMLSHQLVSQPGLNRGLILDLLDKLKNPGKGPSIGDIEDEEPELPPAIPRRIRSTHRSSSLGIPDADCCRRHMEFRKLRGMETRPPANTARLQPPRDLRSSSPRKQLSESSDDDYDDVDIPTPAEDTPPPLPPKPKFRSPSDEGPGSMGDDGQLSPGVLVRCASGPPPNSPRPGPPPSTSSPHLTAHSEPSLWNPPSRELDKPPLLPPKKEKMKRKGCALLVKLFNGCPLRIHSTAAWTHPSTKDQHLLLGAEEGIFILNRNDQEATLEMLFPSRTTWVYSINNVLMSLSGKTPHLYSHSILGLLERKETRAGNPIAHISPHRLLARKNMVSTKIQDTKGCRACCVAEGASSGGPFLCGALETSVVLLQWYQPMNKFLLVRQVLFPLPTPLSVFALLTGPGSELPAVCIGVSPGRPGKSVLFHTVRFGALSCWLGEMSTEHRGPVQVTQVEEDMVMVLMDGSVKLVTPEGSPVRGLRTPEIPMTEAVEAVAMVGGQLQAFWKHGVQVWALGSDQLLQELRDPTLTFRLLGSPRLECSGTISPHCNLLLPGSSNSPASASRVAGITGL
Assay type: biochemical
Method: Pharmacological Experiment 2: […] The test compound was serially diluted using DMSO to 200 times the detection concentration. […] Centrifuge at 1000×g for 30 seconds and incubate at 25° C. for 15 minutes. • (5) Adding ATP and substrate: Add 2 μL of 2×ATP-MBP solution to the 384-well plate and centrifuge at 1000×g for 30 seconds. Seal the plate with a sealing film and incubate at 25° C. for 60 minutes. • (6) Add ADP-Glo reagent: Add 4 μL ADP-Glo reagent (Promega, V9103) to the 384-well plate, centrifuge at 1000×g for 30 seconds, and incubate at 25° C. for 60 minutes. • (7) Detection of luminescent signal; Add 8 μL of luminescent detection reagent (Promega, V9103) to a 384-well plate, centrifuge at 1000×g for 30 seconds, and incubate at 25° C. for 60 minutes. The chemiluminescent signal was read using a BMG instrument. • (8) Calculation of percentage inhibition rate: […] See Table 2 for the enzymatic IC 50 data of the example compounds on HPK1.
“4-(8-FLUORO-7-METHYLIMIDAZO[1,2-A]PYRIDIN-3-YL)-7-((2,3,5,6,7′,8′-HEXAHYDRO-6′H-SPIRO[PYRAN-4, 5′-[1,7]NAPHTHYRIDINE]-2′-YL)AMINO)ISOINDOL-1-ONE [Compound 149]” showed an IC50 of 4.42 nM. With “7-((2,3,5,6,7′,8′-HEXAHYDRO-6′-H-PYRANO[4,5′-[1,7]NAPHTHYRIDINE]-2′-YL)AMINO)-4-(7-(TRIFLUOROMETHYL)IMIDAZO[1,2-A]PYRIDIN-3-YL)ISOINDOL-1-ONE [Compound 147]” the IC50 was 22 nM. Compound CN(C)C1CCC2(CCOCC2)c2ccc(Nc3ccc(-c4cnc5cc(F)ccn45)c4c3C(=O)NC4)nc21 (stereo not drawn) [Compound 3] has an IC50 of 4.16 nM. With Cc1cc(Nc2ccc(-c3cnc4cc(F)ccn34)c3c2C(=O)NC3)nc2c1C1(CCOCC1)C[C@H]2N(C)C [Compound 28, (R)-7-((7-(DIMETHYLAMINO)-4-METHYL-2′,3′,5′,6,6′,7-HEXAHYDROSPIRO[B]PYRIDIN-5,4′-PYRAN]-2-YL)AMINO)-4-(7-FLUOROIMIDAZO[1,2-A]PYRIDIN-3-YL)ISOINDOLIN-1-ONE] the IC50 was 1.27 nM. For Cc1cc(Nc2ccc(-c3cnn4cc(F)ccc34)c3c2C(=O)NC3)nc2c1C1(CCOCC1)C[C@H]2N(C)C [Compound 29], the IC50 was 1.98 nM. With Cc1cc(Nc2cnc(-c3ccnc4c3ccn4C)c3c2C(=O)NC3)nc2c1C1(CCOCC1)CC2N(C)C (stereo not drawn) [Compound 30] the IC50 was 4.22 nM. CN(C)C1CCC2(CCOCC2)c2ccc(Nc3ccc(-c4cnc5cc(Cl)ccn45)c4c3C(=O)NC4)nc21 (stereo not drawn) [Compound 31] was tested, and the IC50 was 4.53 nM. CN(C)C1CCC2(CCOCC2)c2ccc(Nc3ccc(-c4cnn5cc(F)ccc45)c4c3C(=O)NC4)nc21 (stereo not drawn) [Compound 32] showed an IC50 of 4.52 nM. Compound CN(C)C1CCC2(CCOCC2)c2ccc(Nc3ccc(-c4cnn5ccccc45)c4c3C(=O)NC4)nc21 (stereo not drawn) [Compound 33] has an IC50 of 4.76 nM. With CN(C)C1CCC2(CCOCC2)c2ccc(Nc3ccc(-c4ccnc5c4ccn5C)c4c3C(=O)NC4)nc21 (stereo not drawn) [Compound 34] the IC50 was 8.18 nM. CN(C)C1CC2(CCOCC2)c2ccc(Nc3ccc(-c4cnn5cc(F)ccc45)c4c3C(=O)NC4)nc21 (stereo not drawn) [Compound 36] gave an IC50 of 2.73 nM. CN(C)C1CC2(CCOCC2)c2ccc(Nc3ccc(-c4cnn5ccccc45)c4c3C(=O)NC4)nc21 (stereo not drawn) [Compound 37] gave an IC50 of 2.25 nM. Compound CN(C)C1CCC2(CCOCC2)c2ccc(Nc3ccc(-c4cnn5cccnc45)c4c3C(=O)NC4)nc21 (stereo not drawn) [Compound 45] has an IC50 of 3.08 nM. Compound O=C1NCc2c(-c3cnc4cc(F)ccn34)ccc(Nc3ccc4c(n3)C(N3CCC(F)(F)C3)CC43CCOCC3)c21 (stereo not drawn) [Compound 72, 7-((7-(3,3-DIFLUOROPYRROLIDIN-1-YL)-2′,3′,5′6,6′,7-HEXAHYDROSPIRO[B]PYRIDINE-5,4′-PYRAN]-2-YL)AMINO)-4-(7-FLUOROIMIDAZOLE[1,2-A]PYRIDIN-3-YL)ISOINDOL-1-ONE] has an IC50 of 143 nM. CC(=O)N1CCN(C2CC3(CCOCC3)c3ccc(Nc4ccc(-c5cnc6cc(F)ccn56)c5c4C(=O)NC5)nc32)CC1 (stereo not drawn) [Compound 92] gave an IC50 of 75.2 nM. With CC1(O)CCN(C2CC3(CCOCC3)c3ccc(Nc4ccc(-c5cnc6cc(F)ccn56)c5c4C(=O)NC5)nc32)CC1 (stereo not drawn) [Compound 95] the IC50 was 6.36 nM. With CC1(C)CN(C2CC3(CCOCC3)c3ccc(Nc4ccc(-c5cnc6cc(F)ccn56)c5c4C(=O)NC5)nc32)CCO1 (stereo not drawn) [Compound 96] the IC50 was 72.5 nM. With C[C@H]1CN(C2CC3(CCOCC3)c3ccc(Nc4ccc(-c5cnc6cc(F)ccn56)c5c4C(=O)NC5)nc32)CCO1 (stereo partly drawn) [Compound 97] the IC50 was 7.5 nM. For O=C1NCc2c(-c3cnc4cc(F)ccn34)ccc(Nc3ccc4c(n3)C(N3CCNCC3)CC43CCOCC3)c21 (stereo not drawn) [Compound 99], the IC50 was 171 nM. With CN1Cc2nc(Nc3ccc(-c4cnc5cc(F)ccn45)c4c3C(=O)NC4)ccc2C2(CCOCC2)C1 [Compound 100, 4-(7-FLUOROIMIDAZO[1,2-A]PYRIDIN-3-YL)-7-((7′-(METHYL-D3)-2,3,5,6,7′,8′-HEXAHYDRO-6′H-SPIRO[PYRAN-4,5′-[1,7]NAPHTHYRIDINE]-2′-YL)AMINO)ISOINDOL-1-ONE] the IC50 was 3.1 nM. For O=C1NCc2c(-c3cnc4cc(F)ccn34)ccc(Nc3ccc4c(n3)C(N3CCOC5(CC5)C3)CC43CCOCC3)c21 (stereo not drawn) [Compound 111], the IC50 was 30.2 nM. C[C@@H]1CN(C2CC3(CCOCC3)c3ccc(Nc4ccc(-c5cnc6cc(F)ccn56)c5c4C(=O)NC5)nc32)C[C@@H](C)O1 (stereo partly drawn) [Compound 112] showed an IC50 of 48.7 nM. With C[C@@H]1CN(C2CC3(CCOCC3)c3ccc(Nc4ccc(-c5cnc6cc(F)ccn56)c5c4C(=O)NC5)nc32)C[C@H](C)O1 (stereo partly drawn) [Compound 113] the IC50 was 6.21 nM. CN(CC(F)F)C1CC2(CCOCC2)c2ccc(Nc3ccc(-c4cnc5cc(F)ccn45)c4c3C(=O)NC4)nc21 (stereo not drawn) [Compound 114] was tested, and the IC50 was 92.5 nM. O=C1NCc2c(-c3cnc4cc(F)ccn34)ccc(Nc3ccc4c(n3)C(N3CC5CCC(C3)O5)CC43CCOCC3)c21 (stereo not drawn) [Compound 116] gave an IC50 of 79.8 nM. For O=C1NCc2c(-c3cnc4cc(F)ccn34)ccc(Nc3ccc4c(n3)C(NCC(F)(F)F)CC43CCOCC3)c21 (stereo not drawn) [Compound 118], the IC50 was 71.1 nM. CC(C)CNC1CC2(CCOCC2)c2ccc(Nc3ccc(-c4cnc5cc(F)ccn45)c4c3C(=O)NC4)nc21 (stereo not drawn) [Compound 141] gave an IC50 of 3.07 nM. Compound CC(C)NC1CC2(CCOCC2)c2ccc(Nc3ccc(-c4cnc5cc(Cl)ccn45)c4c3C(=O)NC4)nc21 (stereo not drawn) [Compound 142] has an IC50 of 4.52 nM. O=C1NCc2c(-c3cnc4cc(F)ccn34)ccc(Nc3ccc4c(n3)C(N3C[C@H]5C[C@@H]3CO5)CC43CCOCC3)c21 (stereo partly drawn) [Compound 143] showed an IC50 of 3.51 nM. Compound CC(=O)N1Cc2nc(Nc3ccc(-c4cnc5cc(F)ccn45)c4c3C(=O)NC4)ccc2C2(CCCCC2)C1 [Compound 145] has an IC50 of 38.1 nM. For COc1ccn2c(-c3ccc(Nc4ccc5c(n4)CCCC54CCOCC4)c4c3CNC4=O)cnc2c1 [Compound 148], the IC50 was 21.8 nM. O=C1NCc2c(-c3cnc4cc(F)c(Cl)cn34)ccc(Nc3ccc4c(n3)CCCC43CCOCC3)c21 [Compound 150] showed an IC50 of 30.4 nM. For O=C1N=Cc2c(-c3cnc4cc(Cl)ccn34)ccc(Nc3ccc4c(n3)CNCC43CC3)c21 [Compound 152, 4-(7-CHLOROIMIDAZO[1,2-A]PYRIDIN-3-YL)-7-((7′,8′-DIHYDRO-6′H-SPIRO[CYCLOPROPANE-1,5′-[1,7]NAPHTHYRIDINE]-2′-YL)AMINO)ISOINDOL-1-ONE], the IC50 was 14.4 nM. C#CCN1Cc2nc(Nc3ccc(-c4cnc5cc(F)ccn45)c4c3C(=O)NC4)ccc2C2(CCOCC2)C1 [Compound 155] was tested, and the IC50 was 243 nM. For C#CCN1Cc2nc(Nc3ccc(-c4cnc5cc(F)ccn45)c4c3C(=O)NC4)ccc2C2(CCOCC2)C1 [Compound 156], the IC50 was 38.7 nM. CN(C)C1CC2(CCOCC2)c2ccc(Nc3ccc(-c4cnc5c(F)cccn45)c4c3C(=O)NC4)nc21 (stereo not drawn) [Compound 159] was tested, and the IC50 was 5.41 nM. In the case of CN(C)C1CC2(CCOCC2)c2ccc(Nc3ccc(-c4cnc5ccc(F)cn45)c4c3C(=O)NC4)nc21 (stereo not drawn) [Compound 162], the IC50 is reported as 18.6 nM. Compound CC(C)c1ccn2c(-c3ccc(Nc4ccc5c(n4)C(N(C)C)CC54CCOCC4)c4c3CNC4=O)cnc2c1 (stereo not drawn) [Compound 163, 7-((7-(DIMETHYLAMINO)-2′,3′,5′,6,6′,7-HEXAHYDROSPIRO[CYCLOPENTANE[B]PYRIDINE-5,4′-PYRAN]-2-YL)AMINO)-4-(7-ISOPROPYLIMIDAZO[1,2-A]PYRIDIN-3-YL)ISOINDOL-1-ONE] has an IC50 of 25.3 nM. Work on CN(C)C1CC2(CCOCC2)c2ccc(Nc3ccc(-c4cnc5n4CCCC5)c4c3C(=O)NC4)nc21 (stereo not drawn) [Compound 166, 7-((7-(DIMETHYLAMINO)-2′,3′,5′,6,6′,7-HEXAHYDROSPIRO[CYCLOPENTANE[B]PYRIDINE-5,4′-PYRAN]-2-YL)AMINO)-4-(5,6,7,8-TETRAHYDROIMIDAZO[1,2-A]PYRIDIN-3-YL)ISOINDOL-1-ONE] yielded an IC50 of 25.7 nM. With COc1ccn2c(-c3ccc(Nc4ccc5c(n4)C(N(C)C)CC54CCOCC4)c4c3CNC4=O)cnc2c1 (stereo not drawn) [Compound 170] the IC50 was 6.88 nM. In the case of CN(C)C1CC2(CCOCC2)c2ccc(Nc3ccc(-c4cnc5cc(O)ccn45)c4c3C(=O)NC4)nc21 (stereo not drawn) [Compound 171], the IC50 is reported as 35 nM. For CN(C)C1CC2(CCOCC2)c2ccc(Nc3ccc(-c4cnc5cc(OC(F)(F)F)ccn45)c4c3C(=O)NC4)nc21 (stereo not drawn) [Compound 175], the IC50 was 16.8 nM. In the case of O=C1NCc2c(-c3cnc4cc(OC(F)F)ccn34)ccc(Nc3ccc4c(n3)C(N3CCC(F)CC3)CC43CCOCC3)c21 (stereo not drawn) [Compound 176], the IC50 is reported as 12.1 nM. For O=C1NCc2c(-c3cnc4cc(OC(F)F)ccn34)ccc(Nc3ccc4c(n3)C(N3CCOCC3)CC43CCOCC3)c21 (stereo not drawn) [Compound 177, 4-(7-(DIFLUOROMETHOXY)IMIDAZO[1,2-A]PYRIDIN-3-YL)-7-((7-MORPHOLINE-2′,3′,5′,6,6′,7-HEXAHVDROSPIRO[B]PYRIDIN-54′-PYRAN]-2-YL)AMINO)ISOINDOL-1-ONE], the IC50 was 102 nM.
